Each block holds one compound with its values, some of them ahead of it.
Molecular target: T1, ΔF508-CFTR (Homo sapiens, UniProt P13569, DEL508-508)
T1 construct: expressed in transfected cells
Test: Membrane potential optical assay for ΔF508-CFTR correction (single-addition HTS format)
Format: cell-based
Conditions: NIH 3T3 cells expressing ΔF508-CFTR, 16-24 hrs with test compound, 10 µM forskolin and genistein (20 µM); for EC50: read-out: Binned EC50; for Emax: NIH3T3, read-out: Binned Max Efficacy
Description: Membrane potential optical methods for assaying ΔF508-CFTR modulation properties of compounds.
The assay utilizes fluorescent voltage sensing dyes to measure changes in membrane potential using a fluorescent plate reader (e.g., FLIPR III, Molecular Devices, Inc.) as a readout for increase in functional ΔF508-CFTR in NIH 3T3 cells. The driving force for the response is the creation of a chloride ion gradient in conjunction with channel activation by a single liquid addition step after the cells have previously been treated with compounds and subsequently loaded with a voltage sensing dye.
To identify small molecules that correct the trafficking defect associated with ΔF508-CFTR; a single-addition HTS assay format was developed. Assay Plates containing cells are incubated for ∼2-4 hours in tissue culture incubator at 37°C, 5%CO2, 90% humidity. Cells are then ready for compound exposure after adhering to the bottom of the assay plates.
The cells were incubated in serum-free medium for 16-24 hrs in tissue culture incubator at 37°C, 5%CO2, 90% humidity in the presence or absence (negative control) of test compound. The cells were subsequently rinsed 3X with Krebs Ringers solution and loaded with a voltage sensing redistribution dye. To activate ΔF508-CFTR, 10 µM forskolin and the CFTR potentiator, genistein (20 µM), were added along with Cl^--free medium to each well. The addition of Cl^--free medium promoted Cl^- efflux in response to ΔF508-CFTR activation and the resulting membrane depolarization was optically monitored using voltage sensor dyes.
Bath Solution #1: (in mM) NaCl 160, KCl 4.5, CaCl2 2, MgCl2 1, HEPES 10, pH 7.4 with NaOH.
Chloride-free bath solution: Chloride salts in Bath Solution #1 are substituted with gluconate salts.
NIH3T3 mouse fibroblasts stably expressing ΔF508-CFTR are used for optical measurements of membrane potential. The cells are maintained at 37 °C in 5% CO2 and 90 % humidity in Dulbecco's modified Eagle's medium supplemented with 2 mM glutamine, 10 % fetal bovine serum, 1 X NEAA, β-ME, 1 X pen/strep, and 25 mM HEPES in 175 cm^2 culture flasks. For all optical assays, the cells were seeded at […] in 384-well matrigel-coated plates and cultured for 2 hrs at 37 °C before culturing at 27 °C for 24 hrs. for the potentiator assay. For the correction assays, the cells are cultured at 27 °C or 37 °C with and without compounds for 16 - 24 hours.

T1 sequence (P13569 with tags, fused parts or gaps DEL508-508): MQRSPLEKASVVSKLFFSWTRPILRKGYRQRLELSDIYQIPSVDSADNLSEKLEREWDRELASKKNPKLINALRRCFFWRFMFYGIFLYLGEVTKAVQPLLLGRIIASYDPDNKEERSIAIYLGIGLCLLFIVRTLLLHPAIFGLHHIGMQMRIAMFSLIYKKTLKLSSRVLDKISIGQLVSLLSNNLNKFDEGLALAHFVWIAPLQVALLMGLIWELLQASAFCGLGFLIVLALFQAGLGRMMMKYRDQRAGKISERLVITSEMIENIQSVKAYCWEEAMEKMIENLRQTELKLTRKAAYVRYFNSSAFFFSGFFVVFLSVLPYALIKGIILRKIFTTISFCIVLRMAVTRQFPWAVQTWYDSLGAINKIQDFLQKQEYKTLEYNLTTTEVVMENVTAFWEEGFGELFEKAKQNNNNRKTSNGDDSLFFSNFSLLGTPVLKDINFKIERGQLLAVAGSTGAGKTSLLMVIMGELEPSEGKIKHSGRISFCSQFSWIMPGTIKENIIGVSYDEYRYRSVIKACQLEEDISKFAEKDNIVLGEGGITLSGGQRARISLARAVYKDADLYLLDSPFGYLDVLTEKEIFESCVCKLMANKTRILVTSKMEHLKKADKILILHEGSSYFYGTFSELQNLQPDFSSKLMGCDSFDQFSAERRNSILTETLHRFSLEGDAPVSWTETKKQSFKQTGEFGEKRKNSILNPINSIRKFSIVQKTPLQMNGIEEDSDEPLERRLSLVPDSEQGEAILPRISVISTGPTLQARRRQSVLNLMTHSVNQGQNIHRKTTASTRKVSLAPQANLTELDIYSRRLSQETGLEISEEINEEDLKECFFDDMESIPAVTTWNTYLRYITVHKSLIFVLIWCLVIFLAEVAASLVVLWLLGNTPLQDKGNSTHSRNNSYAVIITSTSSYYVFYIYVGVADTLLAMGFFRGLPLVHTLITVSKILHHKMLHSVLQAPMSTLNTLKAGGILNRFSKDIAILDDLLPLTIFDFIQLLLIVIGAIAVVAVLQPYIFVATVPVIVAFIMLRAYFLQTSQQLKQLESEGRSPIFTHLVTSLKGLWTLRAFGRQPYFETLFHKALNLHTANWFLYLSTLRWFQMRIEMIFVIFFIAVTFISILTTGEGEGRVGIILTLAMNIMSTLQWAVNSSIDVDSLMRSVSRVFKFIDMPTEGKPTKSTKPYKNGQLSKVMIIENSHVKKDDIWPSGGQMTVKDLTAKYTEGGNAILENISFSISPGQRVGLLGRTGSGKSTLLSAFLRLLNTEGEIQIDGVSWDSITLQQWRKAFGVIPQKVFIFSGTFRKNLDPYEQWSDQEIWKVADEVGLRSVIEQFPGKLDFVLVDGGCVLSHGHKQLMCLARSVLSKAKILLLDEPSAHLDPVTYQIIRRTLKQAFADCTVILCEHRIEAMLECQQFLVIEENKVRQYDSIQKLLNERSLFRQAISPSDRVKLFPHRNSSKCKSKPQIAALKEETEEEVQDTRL

Compound: 2-(2-tert-butyl-5-(1-(2,2-difluorobenzo[d][1,3]dioxol-5-yl)cyclopropanecarboxamido)-6-fluoro-1H-indol-1-yl)-N,N,N-trimethylethanaminium chloride [Compound 308]
Binned Max Efficacy: +++ ("+++" means > 100%)
EC50: 2000 to 5000 nM

Compound: CC(C)(CCOC[C@@H](O)CO)c1cc2cc(NC(=O)C3(c4ccc5c(c4)OC(F)(F)O5)CC3)c(F)cc2[nH]1 [Compound 309, (S)-1-(2,2-difluorobenzo[d][1,3]dioxol-5-yl)-N-(2-(4-(2,3-dihydroxypropoxy)-2-methylbutan-2-yl)-6-fluoro-1H-indol-5-yl)cyclopropanecarboxamide]
Emax: > 100%
EC50: < 2000 nM

Compound: CC(C)(CCOC[C@@H](O)CO)c1cc2cc(NC(=O)C3(c4ccc5c(c4)OC(F)(F)O5)CC3)c(F)cc2n1C[C@@H](O)CO [Compound 310, 1-(2,2-difluorobenzo[d][1,3]dioxol-5-yl)-N-(2-(4-((S)-2,3-dihydroxypropoxy)-2-methylbutan-2-yl)-1-((R)-2,3-dihydroxypropyl)-6-fluoro-1H-indol-5-yl)cyclopropanecarboxamide]
Emax: > 100%
EC50: < 2000 nM

Now from value to compound:

Emax: > 100%
EC50: < 2000 nM
Compound: CC(C)(CCO)c1cc2cc(NC(=O)C3(c4ccc5c(c4)OC(F)(F)O5)CC3)c(F)cc2n1C[C@@H](O)CO [Compound 311, (R)-1-(2,2-difluorobenzo[d][1,3]dioxol-5-yl)-N-(1-(2,3-dihydroxypropyl)-6-fluoro-2-(4-hydroxy-2-methylbutan-2-yl)-1H-indol-5-yl)cyclopropanecarboxamide]

Emax: > 100%
EC50: < 2000 nM
Compound: CC(C)(C)c1cc2c(C#N)c(NC(=O)C3(c4ccc5c(c4)OC(F)(F)O5)CC3)ccc2n1CCO [Compound 315, N-(2-tert-butyl-4-cyano-1-(2-hydroxyethyl)-1H-indol-5-yl)-1-(2,2-difluorobenzo[d][1,3]dioxol-5-yl)cyclopropanecarboxamide]

Emax: > 100%
EC50: < 2000 nM
Compound: CC(C)(C)c1cc2cc(NC(=O)C3(c4ccc5c(c4)OCO5)CC3)c(F)cc2n1CC(O)CO (stereo not drawn) [Compound 318]
